According to patent US20110015221A1, “PHARMACEUTICAL COMPOSITION OF VINFLUNINE WHICH IS INTENDED FOR PARENTERAL ADMINISTRATION PREPARATION METHOD THEREOF AND USE OF SAME” (PIERRE FABRE MEDICAMENT, priority 2003, published 2011):
In brackets after ≈: the same amount, converted by molar mass.

Assays:
[1] = Stability at 25° C.: total amount of vinflunine-related impurities, pulverulent form vs aqueous solution; assay type: physicochemical
From the text: The stability is monitored by observing the changes in the total amount of vinflunine-related impurities present.

Solubility = settings: water

| SMILES | increase of the total amount of vinflunine-related impurities ([1]; after storage for 6 months at 25° C.) | % impurity relative to 100% of active principle (total vinflunine-related impurities) ([1]; t0) | % impurity relative to 100% of active principle (total vinflunine-related impurities) ([1]; t3 months, storage at 25° C.) | % impurity relative to 100% of active principle (total vinflunine-related impurities) ([1]; t6 months, storage at 25° C.) | solubility (Solubility) |
| --- | --- | --- | --- | --- | --- |
| CC[C@]12C=CCN3CC[C@@]4(c5cc([C@@]6(C(=O)OC)CC7CC(C(C)(F)F)CN(Cc8c6[nH]c6ccccc86)C7)c(OC)cc5N(C)[C@H]4C(O)(C(=O)OC)[C@@H]1OC(C)=O)[C@@H]32 (stereo partly drawn) [batch 503, 20′,20′-difluoro-3′,4′-dihyrovinorelbine L(+)-tartrate] | 197% | 1.17% | 2.75% | 3.48% |  |
| CC[C@]12C=CCN3CC[C@@]4(c5cc([C@@]6(C(=O)OC)CC7CC(C(C)(F)F)CN(Cc8c6[nH]c6ccccc86)C7)c(OC)cc5N(C)[C@H]4C(O)(C(=O)OC)[C@@H]1OC(C)=O)[C@@H]32 (stereo partly drawn) [vinflunine, 20′,20′-difluoro-3′,4′-dihydrovinorelbine] |  |  |  |  | 290 to 330 mg/mL (≈ 355 to 404 mM) |
| CCC1=C[C@@H]2CN(C1)Cc1c([nH]c3ccccc13)[C@@](C(=O)OC)(c1cc3c(cc1OC)N(C)[C@H]1[C@@](O)(C(=O)OC)[C@H](OC(C)=O)[C@]4(CC)C=CCN5CC[C@]31[C@@H]54)C2 [vinorelbine] |  |  |  |  | 1000 mg/mL (≈ 1280 mM) |
